“And” between values parts separate entries of the source, which are not always exact repeats. Identical values can stand only once.
Experiments:
[1] = test system: acute myeloid leukemia (AML); assay: Clinical outcomes, newly diagnosed older AML subjects, sodium salt infusion with 7+3; format: in vivo, human; settings: newly diagnosed AML ≥60 y
Experimental: In this study, 25 human subjects who were newly diagnosed at age 60 or older with acute myeloid leukemia (AML) were selected for this study. Subjects were not disqualified for prior treatment or diagnosis for MDS or CMML.
Each subject received a total of 19 infusions of 10 mg/kg/dose of the compound of Formula (I), administered as the sodium salt, over 10 days with a nominal infusion duration of 20 minutes. The formulation for the infusion solution was as follows: […]
The first dose of a compound of Formula (I) was administered 24 hours±1 hour prior to the first dose of 7+3 (cytarabine and idarubicin) chemotherapy as a sentinel dose to evaluate the effect of the compound of Formula (I) alone (i.e., a single dose of 10 mg/kg the day before the first chemotherapy day). The compound of Formula (I) was then administered every 12 hours±1 hour on chemotherapy days (i.e., 20 mg/kg per day on chemotherapy days) and for two days following the last dose of chemotherapy. […] 7+3 (cytarabine and idarubicin) chemotherapy was administered on Days 2-8 comprising a continuous IV infusion of cytarabine 100 mg/m^2/d over seven days (168 hours, from days 2-8), and idarubicin 12 mg/m^2/d IV for the first three consecutive days ([…], from days 2-4).
The clinical outcome for each subject was assessed at the time of count recovery following completion of induction chemotherapy. Subjects were assigned to one of four response groups: complete remission (“CR”); complete remission with incomplete count recovery (“CRi”); morphologic leukemia-free state (“MLFS”); persistent disease (“PD”). Complete remission was defined as bone marrow blasts <5%; absence of circulating blasts and blasts with Auer rods; absence of extramedullary disease; ANC ≥1.0×10^9/L and platelets ≥100,000×10^9/L. Complete remission with incomplete recovery was defined as: all CR criteria except for residual neutropenia (<1.0×10^9/L) or thrombocytopenia (<100,000×10^9/L). Morphologic leukemia-free state was defined as: bone marrow blasts <5%; absence of blasts with Auer rods; absence of extramedullary disease; no hematologic recovery required. Persistent disease was defined as: bone marrow blasts >5%.

[2] = test system: sE-selectin; assay: Plasma soluble E-selectin ELISA during treatment; format: in vivo, human; settings: individual subjects; for sE-selectin AUEC Day 3 / sE-selectin AUEC Day 8 / sE-selectin AUEC Percent Change from Day 1, Day 3 / sE-selectin AUEC Percent Change from Day 1, Day 8: with MEC
Experimental: Plasma sE-selectin was quantified using a commercially available sandwich format ELISA assay, in which a monoclonal antibody specific for sE-selectin has been pre-coated onto a microplate (Human sE-Selectin Platinum ELISA kit, eBioscience, cat. no. BMS205). Standards, samples and controls were pipetted into the wells of the microplate where they bind to the antibodies coated on the microplate. After a wash step, an HRP-conjugated anti-human sE-selectin antibody was added to the wells to bind the sE-selectin captured by the first antibody. After washing the plate wells to remove unbound HRP-conjugated anti-human sE-selectin antibody, a substrate solution reactive with HRP is added to the wells. Colored product formed in proportion to the amount of human sE-selectin present in the sample or standard. The color-producing reaction was stopped by addition of acid and absorbance of each well was measured at 450 nm. Six human serum samples from healthy donors served as the quality control samples. In addition, two control lyophilized plasma samples (high and low) included with the assay kit were also added to each run.
This response was seen both in mean levels and Area-Under-Effect-Curve (“AUEC”). Decrease from baseline to Day 8 (at the end of 6 days of treatment with a compound of Formula (I), given concurrently with MEC chemotherapy) was highly significant (P<0.0001) with no dose response. FIG. 11 illustrates decreasing mean levels of plasma soluble E-selectin over the treatment period in all dose groups, where doses were BID (i.e., the 5, 10, and 20 mg/kg “Per Dose” amounts of a compound of Formula (I) correspond to dosages of 10, 20, and 40 mg/kg per day, respectively).

[3] = 5-FU induced mucositis assay; format: in vivo, Mice (C57bl/6); settings: 20 mg/kg IP BID 4 days after second 5-FU injection
Experimental: Mice (C57bl/6) were treated with 150 mg/kg of 5-fluorouracil (5-FU) intraperitoneal (IP) on days 0 and 10. After the second injection of 5-FU, the mice were treated with a compound of Formula (I) (20 mg/kg in saline, IP, BID (i.e. 40 mg/kg per day)) or saline alone (0.15 M NaCl) for 4 days. Mice were then sacrificed and the small intestines were removed and weighed to determine the degree of inflammation. […] FIG. 1B illustrates that intestinal erosion, villous loss, and macrophage infiltration after administration of chemotherapy were ameliorated by concurrent administration of a compound of Formula (I).

[4] = test system: KG1 cells; assay: Systemic KG1 AML model survival; format: in vivo, NSG female mice
Experimental: The potential relevance of these in vitro observations was assessed in NSG female mice with pre-existing disseminated KG1 cells and treated with a compound of Formula (I) (40 mg/kg, IP, QD for 14 days), 5-azacytidine (5 mg/kg, IP, administered on days 7, 10, 13, 16, and 19 (5 doses total)), or the combination of both compounds. Under the conditions of the assay, the median survival time of mice treated with saline alone or a compound of Formula (I) was 69.5 and 69 days, respectively (FIG. 9). Administration of a compound of Formula (I) with 5-azacytidine increased median survival time beyond that obtained with 5-azacytidine treatment alone (>104 days versus 88 days; P=0.014, FIG. 9).

[5] = test system: MLL-AF9 leukemic cells; assay: Surviving LSC after high dose cytarabine, limiting dilution transplantation; format: in vivo, mice; settings: with high dose cytarabine (2 x 900 mg/kg)
Experimental: Wild-type mice were transplanted with MLL-AF9 leukemic cells and following engraftment, treated with high dose cytarabine (2 doses of 900 mg/kg at a 12-hour interval (1800 mg/kg total)) alone or in combination with a compound of Formula (I). Bone-marrow cells were harvested 24 hours after treatment and the surviving functional LSCs were quantified by limiting dilution transplantation assays in irradiated wild-type syngeneic recipients. The proportion of recipients who developed leukemia was used to calculate the number of surviving LSC by Poisson's distribution.

Compound: CC[C@@H]1CC(C(=O)NCCNC(=O)CCOCCOCCOCCOCCOCCOCCOCCOCCOCCOCCOCCOC)C[C@@H](O[C@@H]2O[C@@H](CO)[C@H](O)C(O[C@@H](CC3CCCCC3)C(=O)O)C2NC(C)=O)C1OC1O[C@@H](C)C(O)[C@H](O)[C@@H]1O (some centres unmarked) [compound of Formula (I)]
- one-year overall survival rate, all subjects [1]: 52%
- one-year survival rate, MRD negative subjects [1]: 60%
- severe oral mucositis rate [1]: 0%
- median event-free survival ([1]; 95% CI 3-12.6): 9.2 months
- median overall survival ([1]; 95% CI lower 9.9): 12.6 months
- Oral Mucositis Events Grades 3/4 ([1]; N = 25): 0 n
- sE-selectin AUEC Day 1 ([2]; 5 mg/kg per dose): 563.47 hrxng/mL and 1,605.18 hrxng/mL and 339.27 hrxng/mL and 328.40 hrxng/mL
- sE-selectin AUEC Day 3 ([2]; 5 mg/kg per dose): 494.30 hrxng/mL and 1,445.26 hrxng/mL and 275.71 hrxng/mL and 332.11 hrxng/mL
- sE-selectin AUEC Day 8 ([2]; 5 mg/kg per dose): 440.68 hrxng/mL and 728.47 hrxng/mL and 156.25 hrxng/mL and 161.11 hrxng/mL
- sE-selectin AUEC Percent Change from Day 1, Day 3 ([2]; 5 mg/kg per dose): −12.28% and −9.96% and −18.74% and 1.13%
- sE-selectin AUEC Percent Change from Day 1, Day 8 ([2]; 5 mg/kg per dose): −21.79% and −54.62% and −53.95% and −50.94%
- sE-selectin AUEC Day 1 ([2]; 10 mg/kg per dose): 338.36 hrxng/mL and 707.63 hrxng/mL and 325.19 hrxng/mL and 269.90 hrxng/mL and 230.35 hrxng/mL
- sE-selectin AUEC Day 3 ([2]; 10 mg/kg per dose): 313.04 hrxng/mL and 981.09 hrxng/mL and 298.31 hrxng/mL and 202.99 hrxng/mL and 185.98 hrxng/mL
- sE-selectin AUEC Day 8 ([2]; 10 mg/kg per dose): 168.71 hrxng/mL and 218.03 hrxng/mL and 25.51 hrxng/mL and 103.74 hrxng/mL and 158.91 hrxng/mL
- sE-selectin AUEC Percent Change from Day 1, Day 3 ([2]; 10 mg/kg per dose): −7.48% and 38.64% and −8.26% and −24.79% and −19.26%
- sE-selectin AUEC Percent Change from Day 1, Day 8 ([2]; 10 mg/kg per dose): −50.14% and −69.19% and −92.15% and −61.57% and −31.01%
- sE-selectin AUEC Day 1 ([2]; 20 mg/kg per dose): 2,206.19 hrxng/mL and 750.41 hrxng/mL and 202.19 hrxng/mL
- sE-selectin AUEC Day 3 ([2]; 20 mg/kg per dose): 1,743.61 hrxng/mL and 632.82 hrxng/mL and 163.18 hrxng/mL
- sE-selectin AUEC Day 8 ([2]; 20 mg/kg per dose): 956.57 hrxng/mL and 294.47 hrxng/mL and 31.49 hrxng/mL
- sE-selectin AUEC Percent Change from Day 1, Day 3 ([2]; 20 mg/kg per dose): −20.97% and −15.67% and −19.30%
- sE-selectin AUEC Percent Change from Day 1, Day 8 ([2]; 20 mg/kg per dose): −56.64% and −60.76% and −84.43%
- gastrointestinal mucositis as measured by intestinal weight [3]: protects against chemotherapy induced gastrointestinal mucositis
- intestinal erosion, villous loss, and macrophage infiltration [3]: ameliorated
- median survival time ([4]; 40 mg/kg IP QD 14 days alone): 69 days
- median survival time ([4]; 40 mg/kg IP QD 14 days with 5-azacytidine): > 104 days
- increase of sensitivity of LSC to cytarabine treatment [5]: approximately 20 fold

From patent US11707474B2, “Methods for treating acute myeloid leukemia and related conditions” (GlycoMimetics, Inc., priority 2018, dated 2023)
